According to paper PMC11288027, “Exploring novel microbial metabolites and drugs for inhibiting Clostridioides difficile” (mSphere, 2024):
Counter-ions that a name gives are not always drawn. Like-named read-outs stand apart in the source and are kept apart here.

Experiments:
Bif. longum = assay: MIC against human gut microbiota; type: cell-based, Bifidobacterium longum; conditions: Bifidobacterium longum, anaerobic, read-out: minimum inhibitory concentration (MIC)
Bif. breve = assay: MIC against human gut microbiota; type: cell-based, Bifidobacterium breve; conditions: Bifidobacterium breve, ATCC15700; Bif. breve ATCC 15700, BHIS broth, anaerobic; read-out: minimum inhibitory concentration (MIC)
enterococcal species = assay: MIC against human gut microbiota, summary in text; type: cell-based; conditions: summary over the Enterococcus strains of Table 4
[1] = tested on: C. difficile ATCC BAA-1870; assay: MIC of active hits by broth microdilution; conditions: C. difficile ATCC BAA-1870, 48 h anaerobic
Bif. angulatum = assay: MIC against human gut microbiota; type: cell-based, Bifidobacterium angulatum; conditions: Bifidobacterium angulatum; Bif. angulatum HM- 1189, BHIS broth, anaerobic; read-out: minimum inhibitory concentration (MIC)
[2] = tested on: C. difficile clinical isolates; assay: MIC against a panel of 20 C. difficile clinical isolates (broth microdilution); type: cell-based, Clostridioides difficile; conditions: Clostridioides difficile; for MIC50: concentration that inhibited 50% of the 20 C. difficile clinical isolates, read-out: MIC50; for MIC: read-out: minimum inhibitory concentration (MIC)
A. baumannii = tested on: A. baumannii; parameters: method as in PMID 31105656; conditions: cited from earlier work
E. fecalis = assay: MIC against human gut microbiota; type: cell-based, Enterococcus faecalis; conditions: Enterococcus faecalis; E. fecalis HM-970, TSB, aerobic; read-out: minimum inhibitory concentration (MIC)
L. casei = assay: MIC against human gut microbiota; type: cell-based; conditions: Lacticaseibacillus casei, ATCC334; L. casei ATCC 334, MRS broth, 5% CO2; read-out: minimum inhibitory concentration (MIC)
L. rhamanosus = assay: MIC against human gut microbiota; type: cell-based, Lactobacillus rhamnoosus; conditions: Lactobacillus, ATCC53103; L. rhamanosus ATCC-53103, MRS broth, 5% CO2; read-out: minimum inhibitory concentration (MIC)
L. brevis = assay: MIC against human gut microbiota; type: cell-based, Lactobacillus brevis; conditions: Levilactobacillus brevis, ATCC14864; L. brevis ATCC-14864, MRS broth, 5% CO2; read-out: minimum inhibitory concentration (MIC)
B. fragilis = assay: MIC against human gut microbiota; type: cell-based, Bacteroides fragilis; conditions: Bacteroides fragilis, anaerobic, read-out: minimum inhibitory concentration (MIC)
MRSA = tested on: MRSA; parameters: method as in PMID 26765953; conditions: cited from earlier work
B. dorei = assay: MIC against human gut microbiota; type: cell-based, Bacteroides dorei; conditions: Phocaeicola dorei; B. dorei HM- 719, BHIS broth, anaerobic; read-out: minimum inhibitory concentration (MIC)
Bif. adolescentis = assay: MIC against human gut microbiota; type: cell-based, Bifidobacterium adolescentis; conditions: Bifidobacterium adolescentis; Bif. adolescentis HM- 633, BHIS broth, anaerobic; read-out: minimum inhibitory concentration (MIC)
[3] = tested on: Acinetobacter calcoaceticus; parameters: method as in PMID 31105656; conditions: cited from earlier work
[4] = tested on: vancomycin-resistant enterococci (VRE); parameters: method as in PMID 26765953; conditions: cited from earlier work
E. faecium = assay: MIC against human gut microbiota; type: cell-based, Enterococcus faecium; conditions: Enterococcus faecium; E. faecium HM-202, TSB, aerobic; read-out: minimum inhibitory concentration (MIC)

For `N=C(N/N=C/c1ccc(Cl)cc1)N/N=C/c1ccc(Cl)cc1` [Robenidine hydrochloride], the MIC (Bif. longum; Bif. longum HM- 845, BHIS broth) was ≤ 2 mg/L, the MIC (Bif. longum; Bif. longum HM- 846, BHIS broth) was ≤ 2 mg/L and the MIC (Bif. longum; Bif. longum HM- 847, BHIS broth) was ≤ 2 mg/L. For the same compound, the MIC (Bif. longum; Bif. longum HM- 848, BHIS broth) was ≤ 2 mg/L, the MIC (Bif. breve) was ≤ 2 mg/L and the MIC (enterococcal species) was ≤ 2 mg/L. For the same compound, the “MIC (μM)” value [1] was 8 µM, the MIC ([1]; Clostridioides difficile, ATCCBAA1870, 48 h) was 2.97 mg/L and the MIC (Bif. angulatum) was ≤ 2 mg/L. For the same compound, the MIC50 ([2]; 48 h) was 1 mg/L, the MIC ([2]; ATCC630, C. difficile ATCC 630) was 1 mg/L and the MIC ([2]; ATCC43255, C. difficile ATCC 43255) was 1 mg/L. For the same compound, the MIC ([2]; ATCCBAA1870, C. difficile ATCC BAA-1870 (Ribotype-027), purchased compounds, panel test) was 2 mg/L, the MIC ([2]; C. difficile CD-1 (Ribotype-027)) was 1 mg/L and the MIC ([2]; C. difficile CD-6 (Ribotype-027)) was 1 mg/L. It also gave an MIC ([2]; C. difficile CD-10(Ribotype-027)) of 1 mg/L, an MIC ([2]; C. difficile CD-12) of 1 mg/L and an MIC ([2]; C. difficile CD-13) of 2 mg/L. The MIC ([2]; C. difficile CD-15) was 2 mg/L, the MIC ([2]; C. difficile CD-22) was 2 mg/L and the MIC ([2]; C. difficile CD-23) was 1 mg/L. The MIC ([2]; C. difficile CD-24) was 1 mg/L, the MIC ([2]; C. difficile CD-26 (Ribotype-027)) was 1 mg/L and the MIC ([2]; C. difficile CD-28) was 1 mg/L. The MIC ([2]; C. difficile CD-29 (Ribotype-027)) was 1 mg/L, the MIC ([2]; C. difficile CD-30) was 2 mg/L and the MIC ([2]; C. difficile NR-49302) was 1 mg/L. The MIC ([2]; C. difficile NR-49304) was 1 mg/L, the MIC ([2]; C. difficile NR-49308) was 1 mg/L and the MIC ([2]; C. difficile NR-49319) was 1 mg/L. The MIC50 [2] was 1 mg/L, the MIC90 ([2]; concentration that inhibited 90% of the 20 C. difficile clinical isolates, read-out: MIC90) was 2 mg/L and the MIC (A. baumannii) was 8 mg/L. The MIC (E. fecalis) was ≤ 2 mg/L, the MIC (L. casei) was 16 mg/L and the MIC (L. rhamanosus) was 16 mg/L. The MIC (L. brevis) was 8 mg/L, the MIC (B. fragilis; B. fragilis HM- 709, BHIS broth) was ≤ 2 mg/L and the MIC (B. fragilis; B. fragilis HM- 718, BHIS broth) was ≤ 2 mg/L. The MIC (MRSA) was 8.1 µM, the MIC (B. dorei) was ≤ 2 mg/L and the MIC (Bif. adolescentis) was ≤ 2 mg/L. For the same compound, the MIC [3] was 2 mg/L, the MIC [4] was 4.7 µM and the MIC (E. faecium) was ≤ 2 mg/L.
